The structures appear in SMILES notation. ≈ marks a conversion by molar mass, not a printed value. Bounds are passed on as bounds.

Usually zone of inhibition stands for the extent of the growth-free halo in a diffusion test.

What all share (assay type): cell-based
In experiment [1] the test system is Staphylococcus epidermidis ATCC 12228. In words: Broth microdilution MIC. The note with it: Staphylococcus epidermidis, ATCC12228, NA means inactive, read-out: Minimum inhibitory concentration (MIC), S. epidermidis. From the text:
(§1) Panel reference strains of bacteria from the American Type Culture Collection or Polish Collection of Microorganisms, including aerobic Gram-positive bacteria: Staphylococcus aureus ATCC 25923 and Staphylococcus epidermidis ATCC 12228, and aerobic Gram-negative bacteria: Escherichia coli ATCC 25922 and Pseudomonas aeruginosa ATCC 9027, as well as microaerobic Gram-positive bacteria: Lactobacillus spp., Lactobacillus acidophilus PCM 2105, Streptococcus mutans PCM 2502 and Streptococcus sanguinis PCM 2335, were used. Microbial suspensions with an optical density of 0.5 McFarland standard at 1.5 × 10^8 CFU/mL (CFU: colony forming unit) were prepared in sterile 0.9 % NaCl. Mueller–Hinton (M–H) broth and M–H agar (Oxoid Ltd., England) for aerobic strains, and MRS Broth Lactobacillus, MRS Agar Lactobacillus (BioMaxima S.A., Poland), BHI Broth and BHI agar (BioMaxima S.A., Poland) for microaerobic strains were used in the microbial tests.
(§2) A broth microdilution method was used to evaluate the minimum inhibition concentration (MIC) according to the CLSI document (CLSI performance standards for antimicrobial susceptibility testing, 2008, Eighteenth International Supplement, CLSI document M7-MIC, Clinical Laboratory Standards Institute, Wayne) with some modifications. […] A serial doubling dilution of the compounds was prepared in 96-well plates (200 μL per well). A suitable medium (M-H Broth, MRS Broth Lactobacillus, BHI Broth) was used as a diluent. The final concentrations of derivatives were 1000–0.015 μg/mL. Finally, 2 μL of inoculum of the tested bacterial strain (1.5 × 10^8 CFU/mL) was added to each well. The tests were performed either at 36 °C for 18 h (aerobic strains) or at 40 h (microaerobic strains). After incubation, the panel was digitally analyzed at 600 nm using the microplate reader Bio Tech Synergy (USA) with a dedicated software system. The growth intensity in each well was compared with the negative and positive controls.
For orientation: In broth dilution the organism is exposed to a series of concentrations in liquid medium.

The test system of experiment [2] is Pseudomonas aeruginosa ATCC 9027. In words: Broth microdilution MIC. To be noted: Pseudomonas aeruginosa, ATCC9027, NA means inactive, read-out: Minimum inhibitory concentration (MIC), P. aeruginosa.
Source text: as §1, §2

Experiment [3] relates to Staphylococcus aureus ATCC 25923. In words: Broth microdilution MIC. The note with it: Staphylococcus aureus, ATCC25923, NA means inactive, read-out: Minimum inhibitory concentration (MIC), S. aureus.
Source text: as §1, §2

For experiment [4], the system named is Streptococcus sanguinis PCM 2335. Briefly: Broth microdilution MIC. The note with it: Streptococcus sanguinis, PCM2335, NA means inactive, read-out: Minimum inhibitory concentration (MIC), S. sanguinis.
Source text: as §1, §2

The test system of experiment [5] is Streptococcus mutans PCM 2502. Briefly: Broth microdilution MIC. The note with it: Streptococcus mutans, PCM2502, NA means inactive, read-out: Minimum inhibitory concentration (MIC), S. mutans.
Source text: as §1, §2

The subject of experiment [6] is Escherichia coli ATCC 25922. In words: Broth microdilution MIC. The note with it: NA means inactive; for MIC: Escherichia coli, ATCC25922, broth microdilution, read-out: Minimum inhibitory concentration (MIC), E. coli; for Minimum inhibitory concentration (MIC), E. coli: broth microdilution.
Source text: as §1, §2

In experiment [7] the test system is Lactobacillus acidophilus PCM 210. In words: Broth microdilution MIC. To be noted: for MIC: Lactobacillus acidophilus, PCM210, NA means inactive, read-out: Minimum inhibitory concentration (MIC), L. acidophilus.
Experiment [8] shares this test system. In words: Disk diffusion, zone of bacterial growth inhibition. The note with it: Lactobacillus acidophilus, PCM210, 100 μg of compound, read-out: Zone of bacterial growth inhibition, L.a.
Source text: as §1
(§3) The preliminary antibacterial activity of the carbazide derivatives against human pathogenic Gram-positive, Gram-negative aerobic and microaerobic bacteria was evaluated by measuring the zones of inhibition in the disk diffusion method (Murray et al., [1995]). Each compound (100 µg) was placed on Petri plates with agar medium (previously inoculated with 0.5 McFarland standards with the tested bacterial strains). After 18 h of incubation at 37 °C (for aerobic strains) or 40 h at 35 °C (for microaerobic strains), zones of microbial growth produced around the tested substances were measured and recorded as the diameters of inhibition.

Experiment [9] concerns Staphylococcus epidermidis ATCC 12228. The description is as above. The note with it: Staphylococcus epidermidis, ATCC12228, 100 μg of compound, read-out: Zone of bacterial growth inhibition, S.e.
Source text: as §1, §3

Experiment [10] relates to Pseudomonas aeruginosa ATCC 9027. The description is as above. To be noted: Pseudomonas aeruginosa, ATCC9027, 100 μg of compound, read-out: Zone of bacterial growth inhibition, P.a.
Source text: as §1, §3

Experiment [11] concerns Staphylococcus aureus ATCC 25923. The description is as above. The note with it: Staphylococcus aureus, ATCC25923, 100 μg of compound, read-out: Zone of bacterial growth inhibition, S.a.
Source text: as §1, §3

In experiment [12] the test system is Streptococcus sanguinis PCM 2335. The description is as above. To be noted: Streptococcus sanguinis, PCM2335, 100 μg of compound, read-out: Zone of bacterial growth inhibition, S.s.
Source text: as §1, §3

Experiment [13] has as its system Streptococcus mutans PCM 2502. The experiment is described as above. To be noted: Streptococcus mutans, PCM2502, 100 μg of compound, read-out: Zone of bacterial growth inhibition, S.m.
Source text: as §1, §3

Experiment [14] has as its system Escherichia coli ATCC 25922. The experiment is described as above. The note with it: Escherichia coli, ATCC25922, 100 μg of compound, read-out: Zone of bacterial growth inhibition, E.c.
Source text: as §1, §3

The subject of experiment [15] is Lactobacillus spp. Described as above. The note with it: Lactobacillus, 100 μg of compound, read-out: Zone of bacterial growth inhibition, L.spp.
Source text: as §1, §3

For the molecule `CSc1ccc(NC(=S)NNC(=O)c2cccnc2)cc1` [Compound 6, 4-(4-Methylthiophenyl)-1-(pyridin-3-yl)carbonylthiosemicarbazide], the MIC is 500 µg/mL in experiment [1]; greater than 1000 µg/mL in experiment [2]; 250 µg/mL in experiment [3]; 15.6 µg/mL in experiment [4]; 250 µg/mL in experiment [5]; 62 to 125 µg/mL in experiment [6]. In addition, the MIC in experiment [7] was greater than 1000 µg/mL. Also, the “Minimum inhibitory concentration (MIC), E. coli” value in [6] was determined as 62.5 µg/mL. Further, the “Minimum inhibitory concentration (MIC), L. acidophilus” value in [7] (NA means inactive) is “did not limit the growth”. Also, the zone of inhibition at 100 µg/disc in experiment [8] was determined as 0 mm; in [9], 9 mm; in experiment [10], 0 mm; in experiment [11], 10 mm; in experiment [12] it was 19 mm; in [13], 11 mm. Also, the zone of inhibition at 100 µg/disc in experiment [14] turned out to be 9 mm; in experiment [15] it was 0 mm.
As for `CCOc1ccc2nc3cc(N)ccc3c(N)c2c1` [Ethacridine lactate, ethacridine lactate, reference compound], the MIC in experiment [1] is 31.2 µg/mL; in experiment [2], 125 µg/mL; in experiment [3] it was 31.2 µg/mL; in experiment [4] it was 31.2 µg/mL; in [5], 62.5 µg/mL; in experiment [6], 15.6 µg/mL. Also, the MIC in experiment [7] worked out at 31.2 µg/mL. In addition, the zone of inhibition at 100 µg/disc in [8] turned out to be 15 mm; in experiment [9], 8 mm; in [10], 4 mm; in [11], 10 mm; in experiment [12] it was 24 mm; in experiment [13], 24 mm. Besides, the zone of inhibition at 100 µg/disc in experiment [14] was found to be 12 mm; in experiment [15] it was 10 mm.
Regarding `[H]/N=C(\N/C(=N/[H])NCCCCCCNC(=N)NC(=N)Nc1ccc(Cl)cc1)Nc1ccc(Cl)cc1` [CLX, chlorhexidine digluconate, reference compound], the MIC in experiment [1] worked out at 0.488 µg/mL; in experiment [2] it was 15.6 µg/mL; in experiment [3], 0.488 µg/mL; in experiment [4], 7.81 µg/mL; in [5] it was 0.488 µg/mL; in experiment [6], 0.488 µg/mL. Also, the MIC in [7] worked out at 0.976 µg/mL. The zone of inhibition at 100 µg/disc in [8] came out at 24 mm; in experiment [9] it was 23 mm; in experiment [10], 16 mm; in [11] it was 23 mm; in [12], 29 mm; in experiment [13], 26 mm. Moreover, the values for the zone of inhibition at 100 µg/disc in experiment [14] and in experiment [15] were 15 mm and 24 mm, respectively.
For the molecule `O=C(NNC(=S)Nc1ccc(Cl)cc1Cl)c1cccnc1` [Compound 7, 4-(2,4-Dichlorophenyl)-1-(pyridin-3-yl)carbonylthiosemicarbazide], the MIC is 500 µg/mL in experiment [1]; greater than 1000 µg/mL in [2]; greater than 1000 µg/mL in experiment [3]; 1000 µg/mL in [4]; 500 µg/mL in experiment [5]; greater than 1000 µg/mL in experiment [6]. Besides, the MIC in [7] is greater than 1000 µg/mL. The zone of inhibition at 100 µg/disc in experiment [8] came out at 5 mm; in experiment [9] it was 10 mm; in experiment [10], 0 mm; in experiment [11], 0 mm; in [12] it was 10 mm; in [13], 24 mm. The zone of inhibition at 100 µg/disc in experiment [14] amounted to 9 mm; in experiment [15], 7 mm.
`O=C(NNC(=S)Nc1ccc(Cl)cc1Cl)c1ccccn1` [Compound 4, 4-(2,4-Dichlorophenyl)-1-(pyridin-2-yl)carbonylthiosemicarbazide]: the MIC was 31.2 µg/mL in experiment [1]; 500 µg/mL in [2]; 31.2 µg/mL in [3]; 7.81 µg/mL in [4]; 31.2 µg/mL in experiment [5]; 62 to 125 µg/mL in experiment [6]. The MIC in [7] was determined as 31.2 µg/mL (≈ 91.6 µM). Besides, in experiment [6], the “Minimum inhibitory concentration (MIC), E. coli” value was found to be 62.5 µg/mL. The zone of inhibition at 100 µg/disc in experiment [8] came to 20 mm; in experiment [9], 27 mm; in experiment [10] it was 14 mm; in [11], 22 mm; in experiment [12] it was 25 mm; in experiment [13], 35 mm. Further, the zone of inhibition at 100 µg/disc in [14] was determined as 20 mm; in [15] it was 24 mm.
`O=C(NNC(=S)Nc1ccccc1Cl)c1ccccn1` [Compound 2, 4-(2-Chlorophenyl)-1-(pyridin-2-yl)carbonylthiosemicarbazide]: the MIC in [1] was 31.2 µg/mL; in [2] it was 1000 µg/mL; in experiment [3] it was 31.2 µg/mL; in experiment [4], 250 µg/mL; in experiment [5], 250 µg/mL; in experiment [6], 62 to 125 µg/mL. For the same molecule, in experiment [7], the MIC was found to be 62.5 µg/mL (≈ 204 µM). In addition, in experiment [6], the “Minimum inhibitory concentration (MIC), E. coli” value was 62.5 µg/mL. In addition, the zone of inhibition at 100 µg/disc came out at 16 mm in [8]; 25 mm in experiment [9]; 4 mm in [10]; 17 mm in experiment [11]; 0 mm in [12]; 24 mm in experiment [13]. Further, the results for the zone of inhibition at 100 µg/disc in experiment [14] and in experiment [15] were 20 mm and 24 mm, respectively.
